Test results reported in patent US20100168016A1, “DIAGNOSIS AND TREATMENT OF DISEASES CAUSED BY MISFOLDED PROTEINS” (THE JACKSON LABORATORY, priority 2007, published 2010).
Residues, ends and D or L forms follow the SMILES beside them. *: point of attachment. Cbz = O=C(OCc1ccccc1)*

Legend:
[1] = system: mouse embryonic fibroblasts from CASTEi/J mice; assay: aggresome localization of ANKRD16 in fibroblasts under proteasomal stress; type: cell-based; conditions: 1 μM epoximicin for 18 hours
Description: Mouse embryonic fibroblasts were isolated from CASTEi/J mice. To isolate embryonic fibroblasts, CASTEi/J mice were paired for time of pregnancy. E13.5 day pregnant female mice for each of the strains were sacrificed. The time point E0.5 is the morning of finding a plug after pairing a female with a male. The uteri were removed and placed into a dish with PBS and washed. The embryos were isolated free of extraembryonic tissue and washed in PBS. Each embryo was placed into a separate 14 ml tube containing 3 ml of media (DMEM, 10% FBS) and homogenized for 2 seconds. The homogenized tissues were put into 145 mm tissue culture plates (e.g. CellStar from USA Scientific cat.#5663-9160) containing 20 ml of media (DMEM, 10% FBS). The cells were incubated at 37° C. in 5% CO2 until cells were confluent, which was on average from 5 to 7 days. The cells were expanded according to standard tissue culture methods using trypsin and the same passage number for each cell line was used for the experiment. To stress the fibroblast they were treated for 18 hours with 1 μM epoximicin, a proteosome inhibitor (Genaxxon). Then untreated and treated cells were fixed, visualized for ANKRD16 expression using indirect immunofluorescence with polyclonal ANKRD16 rabbit antibody as primary antibody and Alexa555-conjugated anti-rabbit IgG (Invitrogen, Molecular Probes) as secondary antibody. […]

[2] = system: HA-ANKRD16^CAST-transfected COS-7 cells; assay: subcellular localization of ANKRD16 in transfected COS-7 cells; type: cell-based, monkey; conditions: for relocalization of ANKRD16: 10 μM MG132 or 10 μM epoximicin or 3-MA, 24 hours after transfection, within 12 hours of treatment
Description: Cellular localization of full-length ANKRD16 was determined by transfection of epitope-tagged full-length ANKRD16^CAST into monkey kidney fibroblast COS-7 cells and human alveolar epithelial A549 cells. The ANKRD16 coding sequence was amplified by polymerase chain reaction from cDNA by using Pfu DNA polymerase (Stratagene), purified by agarose gel electrophoresis and ligated in-frame with the HA-tag into the pcDNA3 vector. This clone encoded a fusion ANKRD16 with the tag at its C-terminus. All DNA constructs were confirmed by sequencing. COS-7 and A549 cells were maintained in Dulbecco's modified Eagle's medium (Sigma-Aldrich). All cells were grown at 37° C. in 5% CO2 and supplemented with 10% (vol/vol) fetal calf serum, 100 U/ml penicillin and 100 μg/ml streptomycin. Transfections were performed using Lipofectamine 2000 transfection reagent (Invitrogen, USA) according to the manufacturer's protocol. Cells were cultured for 48 h after transfection.
To determine if the induction of autophagy changes the intracellular localization of ANKRD16, we treated transfected cells with rapamycin to induce macroautophagy (data not shown) or performed serum starvation experiments (known to induce chaperone-mediated autophagy after 18 hours) on transfected cells (data not shown). COS-7 cells were transfected with full-length HA-ANKRD16^CAST constructs. […] Nor was co-localization observed with endosome, autophagosome or lysosome markers (data not shown) in the presence or absence of rapamycin or proteasome inhibitors administered as described below.
Several proteins that regulate protein folding and/or the disposal of misfolded proteins are induced or change their subcellular localization in response to misfolded protein stress. To examine if subcellular localization changes with intracellular accumulation of misfolded proteins, we treated full-length HA-ANKRD16^CAST-transfected COS-7 cells 24 hours after transfection with proteosome inhibitors, 10 μM MG132 (Sigma-Aldrich) or 10 μM epoximicin (Sigma-Aldrich) or blocked autophagy with 3-methyladenine (3-MA; Sigma-Aldrich). […]
For immunostaining the cells were fixed with 4% paraformaldehyde (PFA) at room temperature for 5 min, then incubated with anti-ubiquitin, anti-HA, anti-r-tubulin, and anti-vimentin antibodies overnight at 4° C. […] The fluorescence was detected under a fluorescence microscope.

Compound | localization of ANKRD16 [1] | relocalization of ANKRD16 [2] | formation of the aggresome structure ([2]; 10 μg/ml nocodazole)
CC[C@H](C)[C@H](NC(=O)[C@H]([C@@H](C)CC)N(C)C(C)=O)C(=O)N[C@H](C(=O)N[C@@H](CC(C)C)C(=O)[C@@]1(C)CO1)[C@@H](C)O [epoximicin] | relocalized to the aggresome | Relocalization of ANKRD16 to a juxtanuclear structure | –
Cn1cnc(N)c2ncnc1-2 [3-methyladenine] | – | Relocalization of ANKRD16 to a juxtanuclear structure | –
CC(C)C[C@@H](C=O)NC(=O)[C@H](CC(C)C)NC(=O)[C@H](CC(C)C)NC(=O)OCc1ccccc1 [MG132] (Cbz-Leu-Leu-Leu-aldehyde) | – | Relocalization of ANKRD16 to a juxtanuclear structure | –
COC(=O)Nc1nc2ccc(C(=O)c3cccs3)cc2[nH]1 [nocodazole] | – | – | disrupted
